Reference: patent US6114310A, “Efflux pump inhibitors” (priority 1998, dated 2000)

System: Pseudomonas aeruginosa PAM1001
Assay: microbe, parasite or virus in culture
Format: cell-based
Experimental: The activity of efflux pump inhibitors (EPI) in combination with fluoroquinolones, such as levofloxacin, is assessed by the checkerboard assay (Antimicrobial Combinations. In Antibiotics in Laboratory Medicine, Ed. Victor Lorian, M. D., Fourth edition, 1996, pp 333-338) using broth microdilution method performed as recommended by the NCCLS (National Committee for Clinical Laboratory Standards (NCCLS). 1997. Methods for Dilution of Antimicrobial Susceptibility Tests for Bacteria That Grow Aerobically--Fourth Edition; Approved Standard. NCCLS Document M7-A4, Vol 17 No.2). The test organism used is Pseudomonas aeruginosa PAM1001.
In this assay, multiple dilutions of two drugs, namely the EPI and levofloxacin, are being tested, alone and in combination, at concentrations equal to, above and below their respective minimal inhibitory concentrations (MICs).
Stock solutions are further diluted, according to the needs of a particular assay, in Mueller Hinton Broth (MHB). Stock solution can be stored at -80° C. Quinolones are solubilized according to the instructions of the manufacturers, at a concentration of 1 mg/ml. They are then further diluted in MHB. Stock solution can be stored at -80° C.
The checkerboard assay is performed in microtiter plates. Levofloxacin is diluted in the x axis, each column containing a single concentration of levofloxacin. The EPI is diluted in the y axis, each row containing an equal concentration of EPI. The result of these manipulations is that each well of the microtiter plate contains a unique combination of concentrations of the two agents. Each EPI are tested independently.
The assay is performed in MHB with a final bacterial inoculum of 5×10^5 CFU/ml (from an early-log phase culture). Microtiter plates are incubated during 20 h at 35° C. and are read using a microtiterplate reader (Molecular Devices) at 650 nm as well as visual observation using a microtiterplate reading mirror.

[1] = Table 1, EPI Conc. μg/ml (number not given; column between 10 and 40 μg/ml)
[2] = Table 2, EPI Conc. μg/ml (number not given; column between 10 and 40 μg/ml)
[3] = Table 3, EPI Conc. μg/ml (number not given; column between 10 and 40 μg/ml)
[4] = Table 4, EPI Conc. μg/ml (number not given; column between 10 and 40 μg/ml)

Substance	Levofloxacin MIC Against P. aeruginosa PAM1001 in Presence of Efflux Pump Inhibitor (EPI), Minimum Inhibitory Concentration (Table 1, EPI Conc. 0 μg/ml) [mg/L]	Levofloxacin MIC Against P. aeruginosa PAM1001 in Presence of Efflux Pump Inhibitor (EPI), Minimum Inhibitory Concentration (Table 1, EPI Conc. 0.625 μg/ml) [mg/L]	Levofloxacin MIC Against P. aeruginosa PAM1001 in Presence of Efflux Pump Inhibitor (EPI), Minimum Inhibitory Concentration (Table 1, EPI Conc. 5 μg/ml) [mg/L]	Levofloxacin MIC Against P. aeruginosa PAM1001 in Presence of Efflux Pump Inhibitor (EPI), Minimum Inhibitory Concentration (Table 1, EPI Conc. 10 μg/ml) [mg/L]	Levofloxacin MIC Against P. aeruginosa PAM1001 in Presence of Efflux Pump Inhibitor (EPI), Minimum Inhibitory Concentration (Table 1, EPI Conc. 40 μg/ml) [mg/L]	Levofloxacin MIC Against P. aeruginosa PAM1001 in Presence of Efflux Pump Inhibitor (EPI), Minimum Inhibitory Concentration [1] [mg/L]	Levofloxacin MIC Against P. aeruginosa PAM1001 in Presence of Efflux Pump Inhibitor (EPI), Minimum Inhibitory Concentration (Table 2, EPI Conc. 0 μg/ml) [mg/L]	Levofloxacin MIC Against P. aeruginosa PAM1001 in Presence of Efflux Pump Inhibitor (EPI), Minimum Inhibitory Concentration (Table 2, EPI Conc. 0.625 μg/ml) [mg/L]	Levofloxacin MIC Against P. aeruginosa PAM1001 in Presence of Efflux Pump Inhibitor (EPI), Minimum Inhibitory Concentration (Table 2, EPI Conc. 5 μg/ml) [mg/L]	Levofloxacin MIC Against P. aeruginosa PAM1001 in Presence of Efflux Pump Inhibitor (EPI), Minimum Inhibitory Concentration (Table 2, EPI Conc. 10 μg/ml) [mg/L]	Levofloxacin MIC Against P. aeruginosa PAM1001 in Presence of Efflux Pump Inhibitor (EPI), Minimum Inhibitory Concentration (Table 2, EPI Conc. 40 μg/ml) [mg/L]	Levofloxacin MIC Against P. aeruginosa PAM1001 in Presence of Efflux Pump Inhibitor (EPI), Minimum Inhibitory Concentration [2] [mg/L]	Levofloxacin MIC Against P. aeruginosa PAM1001 in Presence of Efflux Pump Inhibitor (EPI), Minimum Inhibitory Concentration (Table 3, EPI Conc. 0 μg/ml) [mg/L]	Levofloxacin MIC Against P. aeruginosa PAM1001 in Presence of Efflux Pump Inhibitor (EPI), Minimum Inhibitory Concentration (Table 3, EPI Conc. 0.625 μg/ml) [mg/L]	Levofloxacin MIC Against P. aeruginosa PAM1001 in Presence of Efflux Pump Inhibitor (EPI), Minimum Inhibitory Concentration (Table 3, EPI Conc. 5 μg/ml) [mg/L]	Levofloxacin MIC Against P. aeruginosa PAM1001 in Presence of Efflux Pump Inhibitor (EPI), Minimum Inhibitory Concentration (Table 3, EPI Conc. 10 μg/ml) [mg/L]	Levofloxacin MIC Against P. aeruginosa PAM1001 in Presence of Efflux Pump Inhibitor (EPI), Minimum Inhibitory Concentration (Table 3, EPI Conc. 40 μg/ml) [mg/L]	Levofloxacin MIC Against P. aeruginosa PAM1001 in Presence of Efflux Pump Inhibitor (EPI), Minimum Inhibitory Concentration [3] [mg/L]	Levofloxacin MIC Against P. aeruginosa PAM1001 in Presence of Efflux Pump Inhibitor (EPI), Minimum Inhibitory Concentration (Table 4, EPI Conc. 0 μg/ml) [mg/L]	Levofloxacin MIC Against P. aeruginosa PAM1001 in Presence of Efflux Pump Inhibitor (EPI), Minimum Inhibitory Concentration (Table 4, EPI Conc. 0.625 μg/ml) [mg/L]	further results
D-Lysyl-β-N-(4-Methylphenethyl)alanine Quinoline-2-amide TFA [Example 22]	4	4	2	1	0.125	0.125	4	4	1	0.25	0.03	0.06	4	4	1	0.125	0.06	0.03	4	4	Levofloxacin MIC Against P. aeruginosa PAM1001 in Presence of Efflux Pump Inhibitor (EPI), Minimum Inhibitory Concentration (Table 1, EPI Conc. […]): 4 mg/L; Levofloxacin MIC Against P. aeruginosa PAM1001 in Presence of Efflux Pump Inhibitor (EPI), Minimum Inhibitory Concentration (Table 2, EPI Conc. […]): 4 mg/L; Levofloxacin MIC Against P. aeruginosa PAM1001 in Presence of Efflux Pump Inhibitor (EPI), Minimum Inhibitory Concentration (Table 4, EPI Conc. 5 μg/ml): 4 mg/L; Levofloxacin MIC Against P. aeruginosa PAM1001 in Presence of Efflux Pump Inhibitor (EPI), Minimum Inhibitory Concentration (Table 4, EPI Conc. 10 μg/ml): 2 mg/L; Levofloxacin MIC Against P. aeruginosa PAM1001 in Presence of Efflux Pump Inhibitor (EPI), Minimum Inhibitory Concentration (Table 4, EPI Conc. 40 μg/ml): 0.50 mg/L; Levofloxacin MIC Against P. aeruginosa PAM1001 in Presence of Efflux Pump Inhibitor (EPI), Minimum Inhibitory Concentration (Table 4, EPI Conc. […]): 4 mg/L; Levofloxacin MIC Against P. aeruginosa PAM1001 in Presence of Efflux Pump Inhibitor (EPI), Minimum Inhibitory Concentration [4]: 1 mg/L
D-Lysyl-β-N-(Cyclohexylmethyl)alanine Quinoline-3-amide Trifluoroacetate [Example 18]	4	4	4	2	0.25	0.50	4	4	4	2	0.125	0.125	4	4	1	0.50	0.03	0.03	4	4	Levofloxacin MIC Against P. aeruginosa PAM1001 in Presence of Efflux Pump Inhibitor (EPI), Minimum Inhibitory Concentration (Table 1, EPI Conc. […]): 4 mg/L; Levofloxacin MIC Against P. aeruginosa PAM1001 in Presence of Efflux Pump Inhibitor (EPI), Minimum Inhibitory Concentration (Table 2, EPI Conc. […]): 4 mg/L; Levofloxacin MIC Against P. aeruginosa PAM1001 in Presence of Efflux Pump Inhibitor (EPI), Minimum Inhibitory Concentration (Table 4, EPI Conc. 5 μg/ml): 2 mg/L; Levofloxacin MIC Against P. aeruginosa PAM1001 in Presence of Efflux Pump Inhibitor (EPI), Minimum Inhibitory Concentration (Table 4, EPI Conc. 10 μg/ml): 0.50 mg/L; Levofloxacin MIC Against P. aeruginosa PAM1001 in Presence of Efflux Pump Inhibitor (EPI), Minimum Inhibitory Concentration (Table 4, EPI Conc. 40 μg/ml): 0.25 mg/L; Levofloxacin MIC Against P. aeruginosa PAM1001 in Presence of Efflux Pump Inhibitor (EPI), Minimum Inhibitory Concentration (Table 4, EPI Conc. […]): 4 mg/L; Levofloxacin MIC Against P. aeruginosa PAM1001 in Presence of Efflux Pump Inhibitor (EPI), Minimum Inhibitory Concentration [4]: 0.125 mg/L
D-Lysyl-β-N-(Cyclopropylmethyl)alanine Quinoline-2-amide Trifluoroacetate [Example 29]	4	4	1	0.125	0.125	0.125	4	4	0.125	0.06	0.06	0.06	4	4	2	0.25	0.008	0.03	4	4	Levofloxacin MIC Against P. aeruginosa PAM1001 in Presence of Efflux Pump Inhibitor (EPI), Minimum Inhibitory Concentration (Table 3, EPI Conc. […]): 4 mg/L; Levofloxacin MIC Against P. aeruginosa PAM1001 in Presence of Efflux Pump Inhibitor (EPI), Minimum Inhibitory Concentration (Table 4, EPI Conc. 5 μg/ml): 0.06 mg/L; Levofloxacin MIC Against P. aeruginosa PAM1001 in Presence of Efflux Pump Inhibitor (EPI), Minimum Inhibitory Concentration (Table 4, EPI Conc. 10 μg/ml): 0.015 mg/L; Levofloxacin MIC Against P. aeruginosa PAM1001 in Presence of Efflux Pump Inhibitor (EPI), Minimum Inhibitory Concentration (Table 4, EPI Conc. 40 μg/ml): 0.015 mg/L; Levofloxacin MIC Against P. aeruginosa PAM1001 in Presence of Efflux Pump Inhibitor (EPI), Minimum Inhibitory Concentration [4]: 0.015 mg/L
